Broadly, the IC50 is the concentration needed to halve the response being measured.

36 molecules from patent publication US11661403B2, “Oxadiazole compounds” (Vivace Therapeutics, Inc., priority 2018, dated 2023) can be followed below.

Bounds are passed on as bounds.

In this assay the test system is 8XTBD luciferase reporter (YAP) in HEK293T cells. Nature of the assay: YAP Reporter Assay. Format: cell-based. The settings on record: Homo sapiens, HEK-293T; HEK293T cells stably transfected with 8XTBD luciferase reporter and pRLTK; 24-hr incubation; top concentration 3 μM; read-out: Firefly Luciferase IC50. Background: Reporter assays use an easily measured gene product as a stand-in for the process of interest.
For `CNCC(C)(C)c1nnc(-c2ccccc2Nc2ccc(C(F)(F)F)cc2)o1` [Compound 144, 2-(5-(2-methyl-1-(methylamino)propan-2-yl)-1,3,4-oxadiazol-2-yl)-N-(4-(trifluoromethyl)phenyl)aniline], the IC50 fell in the range of 100 to 1000 nM.

On to `CN(C#N)CC(C)(C)c1nnc(-c2ccccc2Nc2ccc(C(F)(F)F)cc2)o1` [Compound 146, N-methyl-N-(2-methyl-2-(5-(2-((4-(trifluoromethyl)phenyl)amino)phenyl)-1,3,4-oxadiazol-2-yl)propyl)cyanamide], for which the IC50 was less than 100 nM.

With `CNC(C)Cc1nnc(-c2ccccc2Nc2ccc(C(F)(F)F)cc2)o1` (stereo not drawn) [Compound 147, 2-(5-(2-(methylamino)propyl)-1,3,4-oxadiazol-2-yl)-N-(4-(trifluoromethyl)phenyl)aniline], the IC50 was in the range of 1000 to 5000 nM.

Take `CC(Cc1nnc(-c2ccccc2Nc2ccc(C(F)(F)F)cc2)o1)N(C)C#N` (stereo not drawn) [Compound 149, N-methyl-N-(1-(5-(2-((4-(trifluoromethyl)phenyl)amino)phenyl)-1,3,4-oxadiazol-2-yl)propan-2-yl)cyanamide]: the IC50 was less than 100 nM.

Consider `CNCC(C)c1nnc(-c2ccccc2Nc2ccc(C(F)(F)F)cc2)o1` (stereo not drawn) [Compound 150, 2-(5-(1-(methylamino)propan-2-yl)-1,3,4-oxadiazol-2-yl)-N-(4-(trifluoromethyl)phenyl)aniline], for which the IC50 was 100 to 1000 nM.

With `CC(CN(C)C#N)c1nnc(-c2ccccc2Nc2ccc(C(F)(F)F)cc2)o1` (stereo not drawn) [Compound 152, N-methyl-N-(2-(5-(2-((4-(trifluoromethyl)phenyl)amino)phenyl)-1,3,4-oxadiazol-2-yl)propyl)cyanamide], the IC50 was less than 100 nM.

Regarding `CNC1(c2nnc(-c3ccccc3Nc3ccc(C(F)(F)F)cc3)o2)CC1` [Compound 153, 2-(5-(1-(methylamino)cyclopropyl)-1,3,4-oxadiazol-2-yl)-N-(4-(trifluoromethyl)phenyl)aniline], the IC50 was in the range of 100 to 1000 nM.

`CN(C#N)C1(c2nnc(-c3ccccc3Nc3ccc(C(F)(F)F)cc3)o2)CC1` [Compound 155, N-methyl-N-(1-(5-(2-((4-(trifluoromethyl)phenyl)amino)phenyl)-1,3,4-oxadiazol-2-yl)cyclopropyl)cyanamide]: the IC50 is less than 100 nM.

As for `CNC(C)(C)c1nnc(-c2ccccc2Nc2ccc(C(F)(F)F)cc2)o1` [Compound 156, 2-(5-(2-(methylamino)propan-2-yl)-1,3,4-oxadiazol-2-yl)-N-(4-(trifluoromethyl)phenyl)aniline], the IC50 was in the range of 100 to 1000 nM.

With `CN(C#N)C(C)(C)c1nnc(-c2ccccc2Nc2ccc(C(F)(F)F)cc2)o1` [Compound 158, N-methyl-N-(2-(5-(2-((4-(trifluoromethyl)phenyl)amino)phenyl)-1,3,4-oxadiazol-2-yl)propan-2-yl)cyanamide], the IC50 was less than 100 nM.

For `CNC(C)c1nnc(-c2ccccc2Nc2ccc(C(F)(F)F)cc2)o1` (stereo not drawn) [Compound 159, 2-(5-(1-(methylamino)ethyl)-1,3,4-oxadiazol-2-yl)-N-(4-(trifluoromethyl)phenyl)aniline], the IC50 fell in the range of 100 to 1000 nM.

Take `CC(c1nnc(-c2ccccc2Nc2ccc(C(F)(F)F)cc2)o1)N(C)C#N` (stereo not drawn) [Compound 161, N-methyl-N-(1-(5-(2-((4-(trifluoromethyl)phenyl)amino)phenyl)-1,3,4-oxadiazol-2-yl)ethyl)cyanamide]: the IC50 is less than 100 nM.

Regarding `CC(C)(C(N)=O)c1nnc(-c2ccccc2Nc2ccc(C(F)(F)F)cc2)o1` [Compound 162, 2-methyl-2-(5-(2-((4-(trifluoromethyl)phenyl)amino)phenyl)-1,3,4-oxadiazol-2-yl)propanamide], the IC50 is less than 100 nM.

With `CC(C)(c1nnc(-c2ccccc2Nc2ccc(C(F)(F)F)cc2)o1)S(C)(=O)=O` [Compound 163, 2-(5-(2-(methylsulfonyl)propan-2-yl)-1,3,4-oxadiazol-2-yl)-N-(4-(trifluoromethyl)phenyl)aniline], the IC50 was 100 to 1000 nM.

Turning to `CC(C)(C#N)c1nnc(-c2ccccc2Nc2ccc(C(F)(F)F)cc2)o1` [Compound 164, 2-methyl-2-(5-(2-((4-(trifluoromethyl)phenyl)amino)phenyl)-1,3,4-oxadiazol-2-yl)propanenitrile], the IC50 is less than 100 nM.

On to `O=C(O)C1(c2nnc(-c3ccccc3Nc3ccc(C(F)(F)F)cc3)o2)CC1` [Compound 166, 1-(5-(2-((4-(trifluoromethyl)phenyl)amino)phenyl)-1,3,4-oxadiazol-2-yl)cyclopropane-1-carboxylic Acid], for which the IC50 was less than 100 nM.

On to `CN(Cc1nnc(-c2ccccc2Nc2ccc(C(F)(F)F)cc2)o1)C(=O)OC(C)(C)C` [Compound 167, Tert-Butyl Methyl((5-(2-((4-(trifluoromethyl)phenyl)amino)phenyl)-1,3,4-oxadiazol-2-yl)methyl)carbamate], for which the IC50 lay in the range of 1000 to 5000 nM.

Take `CN(C#N)Cc1nnc(-c2ccccc2Nc2ccc(C(F)(F)F)cc2)o1` [Compound 168, N-methyl-N-((5-(2-((4-(trifluoromethyl)phenyl)amino)phenyl)-1,3,4-oxadiazol-2-yl)methyl)cyanamide]: the IC50 was less than 100 nM.

Turning to `FC(F)(F)c1ccc(Nc2ccccc2-c2nnc(C3CCCN3)o2)cc1` (stereo not drawn) [Compound 169, 2-(5-(pyrrolidin-2-yl)-1,3,4-oxadiazol-2-yl)-N-(4-(trifluoromethyl)phenyl)aniline], the IC50 was in the range of 100 to 1000 nM.

Turning to `N#CN1CCCC1c1nnc(-c2ccccc2Nc2ccc(C(F)(F)F)cc2)o1` (stereo not drawn) [Compound 171, 2-(5-(2-((4-(trifluoromethyl)phenyl)amino)phenyl)-1,3,4-oxadiazol-2-yl)pyrrolidine-1-carbonitrile], the IC50 was less than 100 nM.

Regarding `CNCCc1nnc(-c2ccccc2Nc2ccc(C(F)(F)F)cc2)o1` [Compound 172, 2-(5-(2-(methylamino)ethyl)-1,3,4-oxadiazol-2-yl)-N-(4-(trifluoromethyl)phenyl)aniline], the IC50 is 1000 to 5000 nM.

Regarding `CN(C#N)CCc1nnc(-c2ccccc2Nc2ccc(C(F)(F)F)cc2)o1` [Compound 174, N-methyl-N-(2-(5-(2-((4-(trifluoromethyl)phenyl)amino)phenyl)-1,3,4-oxadiazol-2-yl)ethyl)cyanamide], the IC50 was less than 100 nM.

Consider `FC(F)(F)c1ccc(Nc2ccccc2-c2nnc(C3CCNC3)o2)cc1` (stereo not drawn) [Compound 175, 2-(5-(pyrrolidin-3-yl)-1,3,4-oxadiazol-2-yl)-N-(4-(trifluoromethyl)phenyl)aniline], for which the IC50 lay in the range of 100 to 1000 nM.

For `N#CN1CCC(c2nnc(-c3ccccc3Nc3ccc(C(F)(F)F)cc3)o2)C1` (stereo not drawn) [Compound 177, 3-(5-(2-((4-(trifluoromethyl)phenyl)amino)phenyl)-1,3,4-oxadiazol-2-yl)pyrrolidine-1-carbonitrile], the IC50 fell in the range of 100 to 1000 nM.

Consider `CC1(c2nnc(-c3ccccc3Nc3ccc(C(F)(F)F)cc3)o2)CCCO1` (stereo not drawn) [Compound 178, 2-(5-(2-methyltetrahydrofuran-2-yl)-1,3,4-oxadiazol-2-yl)-N-(4-(trifluoromethyl)phenyl)aniline], for which the IC50 was less than 100 nM.

On to `CC(O)(CCO)c1nnc(-c2ccccc2Nc2ccc(C(F)(F)F)cc2)o1` (stereo not drawn) [Compound 179, 3-(5-(2-((4-(trifluoromethyl)phenyl)amino)phenyl)-1,3,4-oxadiazol-2-yl)butane-1,3-diol], for which the IC50 was less than 100 nM.

Take `CC1(c2nnc(-c3ccccc3Nc3ccc(C(F)(F)F)cc3)o2)CCO1` (stereo not drawn) [Compound 180, 2-(5-(2-methyloxetan-2-yl)-1,3,4-oxadiazol-2-yl)-N-(4-(trifluoromethyl)phenyl)aniline]: the IC50 was less than 100 nM.

In the case of `FC(F)(F)c1ccc(Nc2ccccc2-c2nnc(C3CCCO3)o2)cc1` (stereo not drawn) [Compound 181, 2-(5-(tetrahydrofuran-2-yl)-1,3,4-oxadiazol-2-yl)-N-(4-(trifluoromethyl)phenyl)aniline], the IC50 lay within 100 to 1000 nM.

Consider `FC(F)(F)c1ccc(Nc2ccccc2-c2nnc(C3CCO3)o2)cc1` (stereo not drawn) [Compound 182, 2-(5-(oxetan-2-yl)-1,3,4-oxadiazol-2-yl)-N-(4-(trifluoromethyl)phenyl)aniline], for which the IC50 is less than 100 nM.

For the molecule `CC1(c2nnc(-c3ccccc3Nc3ccc(C(F)(F)F)cc3)o2)COC1` [Compound 183, 2-(5-(3-methyloxetan-3-yl)-1,3,4-oxadiazol-2-yl)-N-(4-(trifluoromethyl)phenyl)aniline], the IC50 was 100 to 1000 nM.

`N#CC1(c2nnc(-c3ccccc3Nc3ccc(C(F)(F)F)cc3)o2)CC1` [Compound 184, 1-(5-(2-((4-(trifluoromethyl)phenyl)amino)phenyl)-1,3,4-oxadiazol-2-yl)cyclopropane-1-carbonitrile]: the IC50 is less than 100 nM.

Consider `CN(C)C(=O)C1(c2nnc(-c3ccccc3Nc3ccc(C(F)(F)F)cc3)o2)CC1` [Compound 185, N,N-dimethyl-1-(5-(2-((4-(trifluoromethyl)phenyl)amino)phenyl)-1,3,4-oxadiazol-2-yl)cyclopropane-1-carboxamide], for which the IC50 was 100 to 1000 nM.

`CNC(=O)C1(c2nnc(-c3ccccc3Nc3ccc(C(F)(F)F)cc3)o2)CC1` [Compound 186, N-methyl-1-(5-(2-((4-(trifluoromethyl)phenyl)amino)phenyl)-1,3,4-oxadiazol-2-yl)cyclopropane-1-carboxamide]: the IC50 lay within 100 to 1000 nM.

In the case of `NC(=O)C1(c2nnc(-c3ccccc3Nc3ccc(C(F)(F)F)cc3)o2)CC1` [Compound 187, 1-(5-(2-((4-(trifluoromethyl)phenyl)amino)phenyl)-1,3,4-oxadiazol-2-yl)cyclopropane-1-carboxamide], the IC50 was less than 100 nM.

For the molecule `COCC(C)NC(=O)c1nnc(-c2ccccc2Nc2ccc(C(F)(F)F)cc2)o1` (stereo not drawn) [Compound 188, N-(1-methoxypropan-2-yl)-5-(2-((4-(trifluoromethyl)phenyl)amino)phenyl)-1,3,4-oxadiazole-2-carboxamide], the IC50 is 100 to 1000 nM.

Regarding `CC(CO)NC(=O)c1nnc(-c2ccccc2Nc2ccc(C(F)(F)F)cc2)o1` (stereo not drawn) [Compound 189, N-(1-hydroxypropan-2-yl)-5-(2-((4-(trifluoromethyl)phenyl)amino)phenyl)-1,3,4-oxadiazole-2-carboxamide], the IC50 fell in the range of 100 to 1000 nM.
